# Source: patent US12012412B2, “Solid forms of pyrazolo[3,4-d]pyrimidine compounds” (Pfizer Inc., priority 2021, dated 2024)
# Legend:
# Type in all cases: physicochemical
# [1] = True density of Solid Form A; details: lots of Solid Form A; A2 and A9 unmilled, A3 and A6/A7 milled
# [2] = Particle size of batches of Solid Form A; details: batches of Solid Form A, milled or unmilled per batch
# Source text: Primary particles from below 100 μm to around 500 μm in size, with soft agglomerates up to several millimeters, were observed. The D[4,3] of this material was 195 μm. This material was subsequently milled, to give far fewer large particles and an overall much smaller average primary particle size, giving a D[4,3] of 49.5 μm. See Table 8 for a comparison of particle size properties of various batches.
# [3] = Mechanical properties of batches of Solid Form A; details: lots of Solid Form A; A2 and A9 unmilled, A3 and A6/A7 milled
# [4] = Solubility of Solid Form A and amorphous Compound X in various solvents at room temperature
compound,measurement,setting,value
CC1CN(Cc2ncccn2)CC1c1nc2c(cnn2C2CCOCC2)c(=O)[nH]1 (stereo not drawn) [A2],"True density (g/cm3), Value",[1],1.28 g/cm3
same,"Particle size D[4, 3]",[2],144 μm
same,"Particle size D[v, 0.1]",[2],45.6 µm
same,"Particle size D[v, 0.9]",[2],247 µm
same,"Brittle fracture index, Rating",[3],Low
same,"Brittle fracture index, Value",[3],0.0486
same,"Brittle/viscoelastic bonding index (x105), Value",[3],2.61
same,"Brittle/viscoelastic bonding index, Rating",[3],Poor
same,"Compression stress (MPa), Value",[3],58.8 MPa
same,"Compression stress, Rating",[3],Moderate
same,"Compromised Tensile strength (MPa), Value",[3],0.274 MPa
same,"Solid fraction, Value",[3],0.87
same,"Tensile strength (MPa), Value",[3],0.3 MPa
same,"Tensile strength, Rating",[3],Low
CC1CN(Cc2ncccn2)CC1c1nc2c(cnn2C2CCOCC2)c(=O)[nH]1 (stereo not drawn) [A3],"True density (g/cm3), Value",[1],1.29 g/cm3
same,"Particle size D[4, 3]",[2],60.2 μm
same,"Particle size D[v, 0.1]",[2],10.5 µm
same,"Particle size D[v, 0.9]",[2],126 µm
same,"Brittle fracture index, Rating",[3],Low
same,"Brittle fracture index, Value",[3],0.139
same,"Brittle/viscoelastic bonding index (x105), Value",[3],8.44
same,"Brittle/viscoelastic bonding index, Rating",[3],Marginal
same,"Compression stress (MPa), Value",[3],67.9 MPa
same,"Compression stress, Rating",[3],Moderate
same,"Compromised Tensile strength (MPa), Value",[3],0.488 MPa
same,"Solid fraction, Value",[3],0.857
same,"Tensile strength (MPa), Value",[3],0.624 MPa
same,"Tensile strength, Rating",[3],Moderate
CC1CN(Cc2ncccn2)CC1c1nc2c(cnn2C2CCOCC2)c(=O)[nH]1 (stereo not drawn) [A4],"Particle size D[4, 3]",[2],24.1 μm
same,"Particle size D[v, 0.1]",[2],4.39 µm
same,"Particle size D[v, 0.9]",[2],52.5 µm
CC1CN(Cc2ncccn2)CC1c1nc2c(cnn2C2CCOCC2)c(=O)[nH]1 (stereo not drawn) [A5],"Particle size D[4, 3]",[2],89.2 μm
same,"Particle size D[v, 0.1]",[2],6.86 µm
same,"Particle size D[v, 0.9]",[2],197 µm
CC1CN(Cc2ncccn2)CC1c1nc2c(cnn2C2CCOCC2)c(=O)[nH]1 (stereo not drawn) [A6/A7],"True density (g/cm3), Value",[1],1.29 g/cm3
same,"Brittle fracture index, Rating",[3],Low
same,"Brittle fracture index, Value",[3],0.022
same,"Brittle/viscoelastic bonding index (x105), Value",[3],5.3
same,"Brittle/viscoelastic bonding index, Rating",[3],Poor
same,"Compression stress (MPa), Value",[3],56.3 MPa
same,"Compression stress, Rating",[3],Moderate
same,"Compromised Tensile strength (MPa), Value",[3],0.393 MPa
same,"Dynamic indentation hardness (MPa), Value",[3],41.6 MPa
same,"Dynamic indentation hardness [ductility rating], Rating",[3],Very high
same,"Solid fraction, Value",[3],0.85
same,"Tensile strength (MPa), Value",[3],0.41 MPa
same,"Tensile strength, Rating",[3],Low
CC1CN(Cc2ncccn2)CC1c1nc2c(cnn2C2CCOCC2)c(=O)[nH]1 (stereo not drawn) [A6],"Particle size D[4, 3]",[2],78.6 μm
same,"Particle size D[v, 0.1]",[2],5.89 µm
same,"Particle size D[v, 0.9]",[2],179 µm
same,"Particle size D[4, 3]",[2]; listed as A7,85.1 μm
same,"Particle size D[v, 0.1]",[2]; listed as A7,6.17 µm
same,"Particle size D[v, 0.9]",[2]; listed as A7,191 µm
CC1CN(Cc2ncccn2)CC1c1nc2c(cnn2C2CCOCC2)c(=O)[nH]1 (stereo not drawn) [A8],"Particle size D[4, 3]",[2],48.6 μm
same,"Particle size D[v, 0.1]",[2],3.96 µm
same,"Particle size D[v, 0.9]",[2],118 µm
CC1CN(Cc2ncccn2)CC1c1nc2c(cnn2C2CCOCC2)c(=O)[nH]1 (stereo not drawn) [A9],"True density (g/cm3), Value",[1],1.29 g/cm3
same,"Particle size D[4, 3]",[2],195 μm
same,"Particle size D[v, 0.1]",[2],20.6 µm
same,"Particle size D[v, 0.9]",[2],362 µm
same,"Brittle fracture index, Rating",[3],Very low
same,"Brittle fracture index, Value",[3],−0.077
same,"Brittle/viscoelastic bonding index (x105), Value",[3],1.95
same,"Brittle/viscoelastic bonding index, Rating",[3],Poor
same,"Compression stress (MPa), Value",[3],52.5 MPa
same,"Compression stress, Rating",[3],Moderate
same,"Compromised Tensile strength (MPa), Value",[3],0.302 MPa
same,"Dynamic indentation hardness (MPa), Value",[3],63.6 MPa
same,"Dynamic indentation hardness [ductility rating], Rating",[3],High
same,"Solid fraction, Value",[3],0.85
same,"Tensile strength (MPa), Value",[3],0.255 MPa
same,"Tensile strength, Rating",[3],Very low
same,"Worst case bonding index (x102), Value",[3],0.401
same,"Worst case bonding index, Rating",[3],Moderate
CC1CN(Cc2ncccn2)CC1c1nc2c(cnn2C2CCOCC2)c(=O)[nH]1 (stereo not drawn) [A10],"Particle size D[4, 3]",[2],49.5 μm
same,"Particle size D[v, 0.1]",[2],3.29 µm
same,"Particle size D[v, 0.9]",[2],129 µm
"C[C@@H]1CN(Cc2ncccn2)C[C@H]1c1nc2c(cnn2C2CCOCC2)c(=O)[nH]1 [amorphous Compound X, 6-((3S,4S)-4-methyl-1-(pyrimidin-2-ylmethyl)pyrrolidin-3-yl)-1-(tetrahydro-2H-pyran-4-yl)-1,5-dihydro-4H-pyrazolo[3,4-d]pyrimidin-4-one]",Solubility (mg/ml),"[4]; 1,2-Xylene",19.9 mg/mL
same,Solubility (mmol),"[4]; 1,2-Xylene",50 mmol
same,Solubility (mmol),[4]; Acetone,>202 mmol
same,Solubility (mg/ml),[4]; Chloroform,>92.3 mg/mL
same,Solubility (mmol),[4]; Chloroform,>233 mmol
same,Solubility (mg/ml),[4]; Dioxane,27.9 mg/mL
same,Solubility (mmol),[4]; Dioxane,71 mmol
same,Solubility (mg/ml),[4]; EtOAc,20.6 mg/mL
same,Solubility (mmol),[4]; EtOAc,52 mmol
same,Solubility (mg/ml),[4]; EtOH,>98.6 mg/mL
same,Solubility (mmol),[4]; EtOH,>249 mmol
same,Solubility (mg/ml),"[4]; Glyme (1,2-Dimethoxyethane)",>113.2 mg/mL
same,Solubility (mmol),"[4]; Glyme (1,2-Dimethoxyethane)",>286 mmol
same,Solubility (mg/ml),[4]; H2O (Water),64.8 mg/mL
same,Solubility (mmol),[4]; H2O (Water),164 mmol
same,Solubility (mg/ml),[4]; H2O-EtOH (Water/EtOH),>26.8 mg/mL
same,Solubility (mmol),[4]; H2O-EtOH (Water/EtOH),>68 mmol
same,Solubility (mg/ml),[4]; H2O-MeCN (Water/MeCN),>75.6 mg/mL
same,Solubility (mmol),[4]; H2O-MeCN (Water/MeCN),>191 mmol
same,Solubility (mg/ml),[4]; H2O-MeOH (Water/MeOH),>42.5 mg/mL
same,Solubility (mmol),[4]; H2O-MeOH (Water/MeOH),>107 mmol
same,Solubility (mg/ml),[4]; H2O-acetone (Water/acetone),>130.3 mg/mL
same,Solubility (mmol),[4]; H2O-acetone (Water/acetone),>329 mmol
same,Solubility (mg/ml),[4]; Heptane,0.7 mg/mL
same,Solubility (mmol),[4]; Heptane,2 mmol
same,Solubility (mg/ml),[4]; IPA,>85.9 mg/mL
same,Solubility (mmol),[4]; IPA,>217 mmol
same,Solubility (mg/ml),[4]; MTBE,11.2 mg/mL
same,Solubility (mmol),[4]; MTBE,28 mmol
same,Solubility (mg/ml),[4]; MeCN,>117.3 mg/mL
same,Solubility (mmol),[4]; MeCN,>297 mmol
same,Solubility (mg/ml),[4]; MeOH,>90.2 mg/mL
same,Solubility (mmol),[4]; MeOH,>228 mmol
same,Solubility (mg/ml),[4]; Nitromethane,>70.2 mg/mL
same,Solubility (mmol),[4]; Nitromethane,>178 mmol
same,Solubility (mg/ml),[4]; THF,81.5 mg/mL
same,Solubility (mmol),[4]; THF,206 mmol
same,Solubility (mg/ml),[4]; Toluene,18.3 mg/mL
same,Solubility (mmol),[4]; Toluene,46 mmol
same,solubility,"[4]; acetone, organic solvent or mixture",> 79.7 mg/mL
